Series [1] deals with T1, CYP2B11 (Canis lupus familiaris, UniProt P24460).
T1 sequence (P24460 1-494): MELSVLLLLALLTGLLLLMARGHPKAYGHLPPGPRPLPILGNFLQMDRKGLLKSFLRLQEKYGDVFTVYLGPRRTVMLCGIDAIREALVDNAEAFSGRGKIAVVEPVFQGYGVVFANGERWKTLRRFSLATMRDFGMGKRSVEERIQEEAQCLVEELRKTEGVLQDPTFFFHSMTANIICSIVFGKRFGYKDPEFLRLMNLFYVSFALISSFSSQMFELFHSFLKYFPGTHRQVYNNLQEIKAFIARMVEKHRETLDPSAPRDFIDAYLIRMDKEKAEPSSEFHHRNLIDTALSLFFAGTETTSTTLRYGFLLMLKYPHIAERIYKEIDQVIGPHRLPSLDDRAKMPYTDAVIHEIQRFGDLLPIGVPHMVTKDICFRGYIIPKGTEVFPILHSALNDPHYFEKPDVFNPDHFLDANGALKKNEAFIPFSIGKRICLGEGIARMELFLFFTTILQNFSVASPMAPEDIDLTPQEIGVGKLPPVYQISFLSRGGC
Kind of series: Pesticides screening using CYP2B11 inhibition assay (BOMCC fluorescence, Example 4). The settings on record: 400 μg/L pesticide; 5 pmol/mL CYP2B11; 3 μM BOMCC. As to the method:
This assay was performed in a 96-well plate by adding 50 μL of chemical standard of pesticides in duplicate, previously prepared in assay buffer with 5% acetonitrile. Enzyme mixture consisted of 5 pmol/mL CYP2B11 (Cypex Limited) in the assay buffer: 75 mM potassium phosphate supplemented with 5 mM MgCl2, pH=8.0, containing 333 mM Glucose-6-phosphate and 30 U/mL Glucose-6-phosphate dehydrogenase. After preparation, 50 μL of enzyme mixture were added to each plate and incubated for 10 minutes at 37° C. After incubation, 10 μL of a substrate mixture containing 30 μM NADP^+ and 3 μM BOMCC in the phosphate buffer was added to the wells. The plate was incubated for 60 minutes at 37° C., and the fluorescence was monitored using 410/460 nm as excitation and emission wavelengths, respectively. A blank sample containing buffer solution was measured in same conditions and used to calculate the inhibition of the enzyme activity that was associated with the presence of pesticides concentration.

The target of series [2] is T2, CYP2B10 (Mus musculus, UniProt P12791).
T2 sequence (P12791 1-491 isoform P12791-2 L55F/V178I/R251K/K253R/N280H/A281T/V298A/H308R/T321A/S349T/L376M/Q412H/S444N): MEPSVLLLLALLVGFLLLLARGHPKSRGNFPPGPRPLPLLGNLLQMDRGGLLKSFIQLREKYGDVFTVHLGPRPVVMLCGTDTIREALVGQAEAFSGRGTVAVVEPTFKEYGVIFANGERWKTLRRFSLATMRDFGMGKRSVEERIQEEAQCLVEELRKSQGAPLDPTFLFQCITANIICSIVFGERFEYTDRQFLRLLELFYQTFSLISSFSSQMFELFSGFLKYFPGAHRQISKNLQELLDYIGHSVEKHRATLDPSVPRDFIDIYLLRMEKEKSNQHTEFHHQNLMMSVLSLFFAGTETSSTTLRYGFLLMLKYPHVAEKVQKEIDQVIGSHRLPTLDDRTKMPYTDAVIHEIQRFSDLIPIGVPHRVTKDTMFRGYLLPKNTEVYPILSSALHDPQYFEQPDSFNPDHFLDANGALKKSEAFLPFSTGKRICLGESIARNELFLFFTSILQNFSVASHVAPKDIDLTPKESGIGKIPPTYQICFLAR
Kind of series: Pesticides screening using CYP2B10 inhibition assay (MOBFC fluorescence, Example 1). The class given is biochemical. The arrangement: purchased Cypex Limited; bacterial membranes, E. coli by own knowledge. The settings on record: 15 pmol/mL CYP2B10, 10 μM MOBFC, 10% acetonitrile standard; for I (%) at 200 μg/L: 200 μg/L pesticide; for I (%) at 400 μg/L: 400 μg/L pesticide. The procedure: An inhibition assay was performed using the enzyme CYP2B10 by contacting it to 200 μg/L and 400 μg/L of chlorpyrifos-ethyl, chlorpyrifos-methyl, prochloraz, diazinon and dicofol.

The target in series [3] is T2, CYP2B10. The series can be described thus: CYP2B10 assay on extracts of spiked mushrooms, validation (Example 7). The conditions noted are these: mushroom spiked at 0.01 mg/kg, extracted; 15 pmol/mL CYP2B10; 10 μM MOBFC; triplicates over seven days.
Description: The bioassay was performed in 500 μL tubes and in triplicate. 50 μL of extract was added to the tubes. Enzyme mixture was prepared following the protocols provided by the manufacturer (Cypex Limited) and consisted of 15 pmol/ml of CYP2B10 Bactosomes in the assay buffer: 75 mM potassium phosphate supplemented with 5 mM MgCl2, pH=8.0, containing 333 mM Glucose-6-phosphate and 30 U/mL Glucose-6-phosphate dehydrogenase. After the preparation, 50 μL of enzyme mixture were added to each tube. After reach room temperature 10 μL of substrate mixture (10 μM MOBFC and 30 μM NADP^+ diluted in potassium phosphate buffer 50 mM) was added to each tube. The tubes were incubated 60 minutes at 37° C. and when time passed, fluorescence signal was measured with a fluorometric reader, 370 nm and 520 nm were the excitation and emission wavelengths, respectively. A blank sample, buffer solution, was measured at the same time and the reduction of the signal, inhibition of enzyme activity, was calculated and associated with the presence of pesticide molecules.
The validation was carried out during seven days, comparing the signal obtained for triplicate samples of blank and doped mushroom.
In series [4] the target is T2, CYP2B10. The series can be described thus: CYP2B10 inhibition assay with MOBFC/MOFC reporter substrate mixes (Example 3). The class given is biochemical. The arrangement: purchased Cypex Limited; bacterial membranes, E. coli by own knowledge. The conditions noted are these: 400 μg/L dicofol. The procedure: The enzyme CYP2B10 was exposed to 400 μg/L of dicofol pesticide, and the inhibition percentage was registered when reporter substrate concentration and composition was changed.

Series [5] deals with T1, CYP2B11. Kind of series: Effect of dimethoate in CYP2B11 assay (BOMCC fluorescence, Example 2). Type of series: biochemical. The arrangement: purchased Cypex Limited. The conditions noted are these: dog, CYP2B11 enzyme (Cypex Limited), pH 8, probe BOMCC (3 μM in substrate mixture); 2 mg/L dimethoate; 10 pmol/mL CYP2B11; 3 μM BOMCC. The source says:
Considering the inhibition percentage determined, it is possible to confirm that CYP2B11 enzyme is susceptible to be inhibited by dimethoate pesticide.

A further series concerns the target T3, Human CYP2B6 (Homo sapiens, UniProt P20813).
T3 construct: purchased Thermofisher Scientific; host or cells: baculosomes (microsomes of baculovirus-infected insect cells, by own knowledge)
T3 sequence (P20813 1-491): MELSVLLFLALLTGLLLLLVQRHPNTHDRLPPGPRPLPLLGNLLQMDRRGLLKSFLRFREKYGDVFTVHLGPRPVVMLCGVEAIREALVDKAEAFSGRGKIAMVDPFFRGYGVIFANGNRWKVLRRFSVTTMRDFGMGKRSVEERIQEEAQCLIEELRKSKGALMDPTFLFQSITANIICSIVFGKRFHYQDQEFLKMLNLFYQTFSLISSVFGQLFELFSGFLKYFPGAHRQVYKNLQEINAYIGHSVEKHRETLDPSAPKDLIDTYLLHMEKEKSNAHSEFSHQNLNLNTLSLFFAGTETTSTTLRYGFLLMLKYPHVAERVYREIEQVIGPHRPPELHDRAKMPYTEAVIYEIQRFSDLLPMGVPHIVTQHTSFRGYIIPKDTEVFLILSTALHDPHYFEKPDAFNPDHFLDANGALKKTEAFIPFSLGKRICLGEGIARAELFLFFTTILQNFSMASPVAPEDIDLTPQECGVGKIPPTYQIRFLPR
Kind of series: Metrafenone inhibition assay on human CYP2B6 (Example 5). The class given is biochemical. The settings on record: 500 μg/L metrafenone; CYP2B6 2.5 pmol/mL; BOMCC 3 μM.

Another series concerns the target T4, Dog CYP2B11 (Canis lupus familiaris, UniProt P24460).
T4 construct: purchased Cypex Limited; host or cells: bactosomes (bacterial membranes; E. coli by own knowledge)
T4 sequence (P24460 1-494): T1 sequence (P24460 1-494)
The series can be described thus: Metrafenone inhibition assay on CYP2B11 (Example 5). Type of series: biochemical. The conditions noted are these: 500 μg/L metrafenone; CYP2B11 5 pmol/mL; BOMCC 3 μM.

Description for Dog CYP2B11: (§1) This assay was performed in a 96-well plate by adding 50 μL of 500 μg/L of metrafenone chemical standard to wells in duplicate, previously prepared in assay buffer with 5% acetonitrile. CYP2B11 enzyme mixture consisted of 5 pmol/mL Dog CYP2B11 bactosomes (Cypex Limited) in the assay buffer: 75 mM potassium phosphate supplemented with 5 mM MgCl2, pH=8.0, containing 333 mM Glucose-6-phosphate and 30 U/mL Glucose-6-phosphate dehydrogenase. CYP2B6 enzyme mixture consisted of 2.5 pmol/ml of Vivid® Human CYP2B6 baculosomes (Thermofisher Scientific) in the assay buffer: 75 mM potassium phosphate, pH=8.0, containing 333 mM Glucose-6-phosphate and 30 U/mL Glucose-6-phosphate dehydrogenase.
(§2) After preparation, 50 μL of each enzyme mixture were added to each plate and incubated for 10 minutes at 37° C. After incubation, 10 μL of a substrate mixture containing 30 μM NADP^+ and 3 μM BOMCC in the phosphate buffer was added to the wells. The plate was incubated for 60 minutes at 37° C., and the fluorescence was monitored using 410/460 nm as excitation and emission wavelengths, respectively. A blank sample containing buffer solution was measured in same conditions and used to calculate the inhibition percentage of the activity of the enzymes in presence of the pesticide metrafenone.
Description for Human CYP2B6: as §1, §2

On to `N#Cc1c(Cl)c(Cl)c(Cl)c(C#N)c1Cl` [Chlorothalonil], for which the “I(%)” value at CYP2B11 [1] amounted to 62.3%.

With `CCOP(=S)(OCC)Oc1nc(Cl)c(Cl)cc1Cl` [Chlorpyrifos-ethyl], on CYP2B10 [2], the “I (%) at 200 μg/L” value is given as 26.8% and the “I (%) at 400 μg/L” value amounted to 46.8%. At CYP2B11 [1], the “I(%)” value was 94.2%.

Consider `COP(=S)(OC)Oc1nc(Cl)c(Cl)cc1Cl` [Chlorpyrifos-methyl], for which the “Average I (%)” value on CYP2B10 [3] stood at 46.8%. On CYP2B10 [2], the “I (%) at 200 μg/L” value worked out at 49.5% and the “I (%) at 400 μg/L” value is listed as 77.9%. Also, the “I(%)” value on CYP2B11 [1] is 96.0%.

Turning to `CC1(C)C(C=C(Cl)Cl)C1C(=O)OC(C#N)c1cccc(Oc2ccccc2)c1` (stereo not drawn) [Cypermethrin], on CYP2B11 [1], the “I(%)” value is given as 17.5%.

`Clc1ccc(C(c2ccc(Cl)cc2)C(Cl)(Cl)Cl)cc1` [DDT]: the “I(%)” value at CYP2B11 [1] is recorded as 70.7%.

For `CCOP(=S)(OCC)Oc1cc(C)nc(C(C)C)n1` [Diazinon], on CYP2B11 [1], the “I(%)” value was determined as 84.1%.

As to `OC(c1ccc(Cl)cc1)(c1ccc(Cl)cc1)C(Cl)(Cl)Cl` [Dicofol], at CYP2B10 [2], the “I (%) at 200 μg/L” value turned out to be 19.0%. At CYP2B10 [2], the “I (%) at 400 μg/L” value is given as 30.6%. In addition, the “I(%)” value at CYP2B11 [1] turned out to be 79.0%; at CYP2B10 [4] (MOBFC 0.0 μM, MOFC 10.0 μM), 72.9%; on CYP2B10 [4] (MOBFC 2.0 μM, MOFC 8.0 μM) it was 50.6%; on CYP2B10 [4] (MOBFC 3.3 μM, MOFC 6.6 μM), 37.4%; at CYP2B10 [4] (MOBFC 5.0 μM, MOFC 5.0 μM), 24.3%; on CYP2B10 [4] (MOBFC 10.0 μM, MOFC 0.0 μM), 16.8%.

As for `CC(C)NC(=O)N1CC(=O)N(c2cc(Cl)cc(Cl)c2)C1=O` [Iprodione], the “I(%)” value at CYP2B11 [1] is listed as 15.9%.

As to `CCCC(Cn1cncn1)c1ccc(Cl)cc1Cl` (stereo not drawn) [Penconazole], the “I(%)” value on CYP2B11 [1] amounted to 87.8%.

Take `CCCN(CCOc1c(Cl)cc(Cl)cc1Cl)C(=O)n1ccnc1` [Prochloraz]: the “Average I (%)” value on CYP2B10 [3] amounted to 54.2%. For the same molecule, on CYP2B10 [2], the “I (%) at 200 μg/L” value was found to be 60.3% and the “I (%) at 400 μg/L” value was found to be 72.0%. Further, the “I(%)” value on CYP2B11 [1] is 94.6%.

As to `CC12CC1(C)C(=O)N(c1cc(Cl)cc(Cl)c1)C2=O` (stereo not drawn) [Procymidone], at CYP2B11 [1], the “I(%)” value was found to be 24.5%.

As for `Fc1ccc(Oc2ccnc3cc(Cl)cc(Cl)c23)cc1` [Quinoxyfen], on CYP2B11 [1], the “I(%)” value is listed as 18.1%.

By inhibition is commonly meant the share of the control response that was lost under treatment. As to `CNC(=O)CSP(=S)(OC)OC` [dimethoate], the inhibition at 60 min, 2 mg/L at CYP2B11 [5] came out at 56.8%.

Turning to `COc1cc(C)c(C(=O)c2c(OC)ccc(Br)c2C)c(OC)c1OC` [metrafenone], the “I(%)” value turned out to be 0.0% at Human CYP2B6 and 35.2% at Dog CYP2B11.

For the origin of these results see US20240175069A1, “BIOSYSTEM FOR PESTICIDE DETECTION” (priority 2022, published 2024).
